Legend:
Type in all cases: cell-based, human
melanoma cells = experiment: Glucose deprivation-induced apoptosis markers (cleaved PARP-1, caspase-3) by Western blotting; details: 1 nM; Day 3 and 4
Method: . Cell density was assessed at day 3 and 4. […] . Data are mean±S.E.M. of ratios (FIG. 4B) and % inhibition (FIG. 4C). […] N=5. *p<0.01 compared to Day 0. #p<0.01 compared to vehicle (open bars).
. The cells were washed with PBS, incubated in 0.1% fetal bovine serum (FBS) for 16 hours and incubated in glucose-free 0.1% FBS-containing medium for up to 4 days in the presence of vehicle or 1 nM Compound C0105. The cells in the entire well were collected by centrifugation. […] The protein concentrations were measured by the Bradford method.
The cells were homogenized and the obtained homogenates were centrifuged to remove nucleus and mitochondria. […] The level of apoptotic cell death was determined using Western blotting in 50 μg solubilized cell lysates with antibodies against cleaved PARP-1 (Asp^214) and caspase-3 (Asp^175), both at 1:1000 dilution. […] Bands at the relevant molecular masses of Ki67 and PCNA were quantified by densitometric scan. Membranes were stripped, washed 5× in 0.1% PBST (2 minutes each wash) and the actin content analyzed by immunoblotting using monoclonal anti-actin to illustrate even loading.

[1] = system: glioblastoma (U-87MG) cells; experiment: Cell proliferation by cell-cycling markers Ki67 and PCNA (Western blots); details: 0.1-5 nM; 4 days
Method: The effect of contact with Compound C0105 on cell proliferation was determined by the levels of cell-cycling markers: Ki67 and PCNA using Western blots in glioblastoma (U-87MG) cells. Cells contacted with vehicle and 0.1-5 nM Compound C0105 for 4 days were collected, washed and solubilized. The resultant cell lysates were size-fractionated on SDS-PAGE and Western blotting to determine the levels of Ki67, PCNA and actin (loading control). The protein bands were quantified using densitometric scanning. […] N=4. *p<0.01 compared to vehicle (open bars).
To study the effect of Compound C0105 on PI3K activity, the cancer and primary normal cells were cultured to approximately 60-70% confluency, serum deprived for 4 hours, briefly washed with PBS and treated with vehicle or 0.1, 0.5, 1 or 5 nM Compound C0105 for 24 hours with in 0.1% FBS-containing culture medium. The cells were then washed with PBS, scraped off and collected by centrifugation. The cell pellets were sonicated in ice-cold immunoprecipitation buffer and protein concentrations measured by the Bradford method. […]
Immunoreactivity was visualized by reaction in ECL Plus chemiluminescent reagent for exactly 5 minutes, followed by immediate exposure of the blot to X-ray film (Z & Z Medical). Bands at the relevant molecular masses of Ki67 and PCNA were quantified by densitometric scan. […]

[2] = system: pS2448mTOR, pS473Akt, pY/pT-ERK2 in primary lung fibroblast cells; experiment: Activated (phosphorylated) mTOR, Akt and ERK2 levels (immunoprecipitation, Western blotting); details: 0.1-5 nM; 4 days
Method: (§1) Cells were treated with vehicle and 0.1-5 nM C0105 for 4 days. Cells were washed, solubilized and the resultant cell lysate was immunoprecipitated with anti-mTOR, -Akt or -ERK2. The levels of pS^2448mTOR, pS^473Akt, pY/pTERK2 in the respective anti-mTOR, -Akt, and -ERK2 immunoprecipitates were determined by Western blotting. […] The density of protein bands was measured by densitometric scanning. […] N=4. *p<0.01 compared to vehicle (open bars). […]
(§2) The cell lysates were diluted 5-fold with immunoprecipitation buffer and immunoprecipitated with anti-FLNA, -Akt, -mTOR and -ERK2 as described previously [Talbot et al., J Clin Inv 122(4):1-23 (2012); Wang et al., J Neurosci 32(29):9773-9784 (2012)]. The levels of FLNA linkages, activated phosphorylated Akt (pS^473 and pT^308), phosphorylated mTOR (pS^2448) and phosphorylated ERK2 (pY/pT) were determined in anti-FLNA, -Akt, -mTOR and -ERK2 immunoprecipitates by Western blotting with appropriate antibodies directed against PTEN, PP2A, K-RAS, ras-GAP (FLNA linkages), pS^473Akt, pT^308Akt, pS^2448mTOR and pY/pT ERK2 (activation of Akt, mTOR and ERK2).

[3] = system: pS2448mTOR, pS473Akt, pY/pT-ERK2 in small-cell lung carcinoma cells; experiment: as above; details: 0.1-5 nM; 4 days
Method: as §1, §2

Which “Glucose deprivation-induced cell death by cleaved PARP-1 and caspase-3” value (melanoma cells) does the source give for `CN1CCC2(CC1)NCC(=O)N2Cc1ccccc1` [Compound C0105] here?
Its value is “reduces glucose deprivation-induced cell death”.

And the “Cell proliferation (Ki67 and PCNA levels)” value [1]?
The value was “reduces cell proliferation”.

And the “mTOR, Akt and ERK activation (phosphorylated mTOR, Akt and ERK)” value [2]?
Its value is “little effect on mTOR, Akt and ERK activation”.

What about the “mTOR, Akt and ERK activation (phosphorylated mTOR, Akt and ERK)” value [3] of the same compound?
The value was “robustly reduces mTOR, Akt and ERK activation”.

From patent US10363239B2, “Method for inhibiting growth of cancer cells” (Pain Therapeutics, Inc., priority 2013, dated 2019)
